Data: US20220002400A1 (priority 2019, published 2022)
Where “and” joins values, the source holds several entries; their conditions need not be identical. Equal entries are not always repeated.

Tests used:
Format in all cases: cell-based
[1] = test system: A549 cells; details: 100 nM for 1 hour at 37° C.
[2] = test system: Influenza A PR8 virus
[3] = test system: Influenza A PR8 virus; details: 10 nM

SMILES | lysotracker staining [1] | protection against IAV infection (percentage of HA+ cells) [2] | effect of baloxavir marboxil treatment combined with CRISPR deletion on Influenza A virus infection ([3]; 1 nM, 5 nM) | reduction of the rate of Influenza A virus infection compared to untreated cells, according to Hemagglutinin staining [3]
CO/C1=C\C(C)=C\[C@@H](C)[C@@H](O)[C@@H](C)C/C(C)=C/C=C/[C@H](OC)[C@@H]([C@@H](C)[C@@H](O)[C@H](C)[C@@]2(O)C[C@@H](O)[C@H](C)[C@@H](C(C)C)O2)OC1=O [BafA, Bafilomycin A] | a decrease in lysotracker staining was observed | further protected the KO cells against IAV infection | – | –
COC(=O)OCOc1c2n(ccc1=O)N([C@@H]1c3ccccc3SCc3c1ccc(F)c3F)[C@@H]1COCCN1C2=O [baloxavir marboxil] | – | – | synergistic effect with baloxavir marboxil treatment but to a lesser extent compared to CMTR1 | 58% and 91%
